Target: KRas G12D (Homo sapiens (Human), UniProt P01116, G12D)
Test: KRas G12D Binding Assay (TR-FRET displacement of Cy5 labelled tracer)
Settings: GDP-loaded KRAS G12D (amino acids 1:169), 60 minute incubation at 22° C.
Description: After a 60 minute incubation at 22° C., the reaction was measured using a PerkinElmer EnVision multimode plate reader via TR-FRET dual wavelength detection, and the percent of control (POC) calculated using a ratiometric emission factor. […] The POC values were fit to a 4-parameter logistic curve and the IC50 value was determined as the concentration where the curve crosses 50 POC.
ND stands for “not determined.”

Sequence of KRas G12D (P01116 other isoform, or with tags, fused parts or gaps G12D): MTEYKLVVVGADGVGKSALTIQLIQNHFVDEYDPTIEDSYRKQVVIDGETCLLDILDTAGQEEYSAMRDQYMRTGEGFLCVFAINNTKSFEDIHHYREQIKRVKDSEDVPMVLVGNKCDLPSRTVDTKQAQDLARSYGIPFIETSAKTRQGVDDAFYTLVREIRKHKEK

SMILES | IC50
[2H]C1([2H])CC[C@@]2(C([2H])([2H])Oc3nc(N4C[C@H]5CC[C@@H](C4)N5)c4cnc(-c5cc(O)cc6cccc(CC)c56)c(F)c4n3)C[C@@H](F)CN12 [Example 480, 4-(4-((1R,5S)-3,8-diazabicyclo[3.2.1]octan-3-yl)-8-fluoro-2-(((2R,7aS)-2-fluorotetrahydro-1H-pyrrolizin-7a(5H)-yl-5,5-d2)methoxy-d2)pyrido[4,3-d]pyrimidin-7-yl)-5-ethylnaphthalen-2-ol] | < 0.002 nM
CN(C)c1nc(N2CC3CCC(C2)N3)c2cnc(-c3cc(O)cc4ccccc34)c(F)c2n1 [Example 184, 4-[4-(3,8-diazabicyclo[3.2.1]octan-3-yl)-2-(dimethylamino)-8-fluoro-pyrido[4,3-d]pyrimidin-7-yl]naphthalen-2-ol] | 1990 nM
CCc1cccc2cc(O)cc(-c3ncc4c(N5CC6CCC(C5)N6)nc(OC[C@]56CCCN5[C@@H](COC(=O)N(C)C)CC6)nc4c3F)c12 [Example 434, 7a-(((4-((1R,5S)-3,8-diazabicyclo[3.2.1]octan-3-yl)-7-(8-ethyl-3-hydroxynaphthalen-1-yl)-8-fluoropyrido[4,3-d]pyrimidin-2-yl)oxy)methyl)hexahydro-1H-pyrrolizin-3-yl)methyl dimethyl carbamate] | 0.7 nM
CNc1c(F)cccc1-c1ncc2c(N3C[C@H]4CC[C@@H](C3)N4)nc(OCC34CCCN3CCC4)nc2c1F [Example 268, 2-(4-((1R,5S)-3,8-diazabicyclo[3.2.1]octan-3-yl)-8-fluoro-2-((hexahydro-1H-pyrrolizin-7a-yl)methoxy)pyrido[4,3-d]pyrimidin-7-yl)-6-fluoro-N-methylaniline] | 1550 nM
CN1CCC[C@H]1COc1nc(N2CC3C[C@@H](O)C(C2)N3)c2cnc(-c3cc(O)cc4ccccc34)c(F)c2n1 (stereo partly drawn) [Example 31, 3-(8-fluoro-7-(3-hydroxynaphthalen-1-yl)-2-(((S)-1-methylpyrrolidin-2-yl)methoxy)pyrido[4,3-d]pyrimidin-4-yl)-3,8-diazabicyclo[3.2.1]octan-6-ol] | 1.6 nM
Fc1ccc2cccc(-c3ncc4c(N5CC6CCC(C5)N6)nc(OC[C@@]56CCCN5C[C@H](F)C6)nc4c3F)c2c1Cl (racemic) [Example 336, 4-((1R,5S)-3,8-diazabicyclo[3.2.1]octan-3-yl)-7-(8-chloro-7-fluoronaphthalen-1-yl)-8-fluoro-2-((2-fluorotetrahydro-1H-pyrrolizin-7a(5H)-yl)methoxy)pyrido[4,3-d]pyrimidine (racemic, trans)] | 3.1 nM
CC(C)(C)[Si](C)(C)OCC1CCC2(COc3nc(N4C[C@H]5CC[C@@H](C4)N5)c4cnc(-c5cccc6cccc(Cl)c56)c(F)c4n3)CCCN12 (stereo partly drawn) [Example 64, 4-((1R,5S)-3,8-diazabicyclo[3.2.1]octan-3-yl)-2-((3-(((tert-butyldimethylsilyl)oxy)methyl)tetrahydro-1H-pyrrolizin-7a(5H)-yl)methoxy)-7-(8-chloronaphthalen-1-yl)-8-fluoropyrido[4,3-d]pyrimidine] | 3.3 nM
Fc1c(-c2cccc3cccc(OC(F)(F)F)c23)ncc2c(N3C[C@H]4CC[C@@H](C3)N4)nc(OCC34CCCN3CCC4)nc12 [Example 345, 4-((1R,5S)-3,8-diazabicyclo[3.2.1]octan-3-yl)-8-fluoro-2-((tetrahydro-1H-pyrrolizin-7a(5H)-yl)methoxy)-7-(8-(trifluoromethoxy)naphthalen-1-yl)pyrido[4,3-d]pyrimidine] | 10.6 nM
CC(C)c1cccc(C(C)C)c1-c1ncc2c(N3C[C@H]4CC[C@@H](C3)N4)nc(OCC34CCCN3CC(F)C4)nc2c1F (stereo partly drawn) [Example 394, 4-((1R,5S)-3,8-diazabicyclo[3.2.1]octan-3-yl)-7-(2,6-diisopropylphenyl)-8-fluoro-2-((2-fluorotetrahydro-1H-pyrrolizin-7a(5H)-yl)methoxy)pyrido[4,3-d]pyrimidine] | 2500 nM
CN(C)C(=O)OC[C@H]1CC[C@@]2(COc3nc(N4CC5CCC(C4)N5)c4cnc(-c5cccc6cccc(Cl)c56)c(F)c4n3)CCCN12 [Example 405, (7a-(((4-(3,8-diazabicyclo[3.2.1]octan-3-yl)-7-(8-chloronaphthalen-1l-yl)-8-fluoropyrido[4,3-d]pyrimidin-2-yl)oxy)methyl)hexahydro-1H-pyrrolizin-3-yl)methyl dimethylcarbamate] | 2.2 nM
C#Cc1cccc2cc(O)cc(-c3ncc4c(N5C[C@H]6CC[C@@H](C5)N6)nc(OCC56CCCN5CCC6)nc4c3F)c12 [Example 185, 4-(4-((1R,5S)-3,8-diazabicyclo[3.2.1]octan-3-yl)-8-fluoro-2-((hexahydro-1H-pyrrolizin-7a-yl)methoxy)pyrido[4,3-d]pyrimidin-7-yl)-5-ethynylnaphthalen-2-ol] | 0.3 nM
Fc1ccc2cccc(-c3ncc4c(N5C[C@H]6CC[C@@H](C5)N6)nc(OCC56CCCN5CCC6)nc4c3F)c2c1F [Example 464, 4-((1R,5S)-3,8-diazabicyclo[3.2.1]octan-3-yl)-7-(7,8-difluoronaphthalen-1-yl)-8-fluoro-2-((hexahydro-1H-pyrrolizin-7a-yl)methoxy)pyrido[4,3-d]pyrimidine] | 0.007 nM
Fc1c(-c2cccc(C(F)(F)F)c2C(F)(F)F)ncc2c(N3C[C@H]4CC[C@@H](C3)N4)nc(OCC34CCCN3CCC4)nc12 [Example 197, 4-((1R,5S)-3,8-diazabicyclo[3.2.1]octan-3-yl)-7-(2,3-bis(trifluoromethyl)phenyl)-8-fluoro-2-((tetrahydro-1H-pyrrolizin-7a(5H)-yl)methoxy)pyrido[4,3-d]pyrimidine] | 99.9 nM
Fc1c(-c2cncc3cccc(Cl)c23)ncc2c(N3C[C@H]4CC[C@@H](C3)N4)nc(OC[C@]34CCCN3C[C@@H](F)C4)nc12 [Example 203, 4-((1R,5S)-3,8-diazabicyclo[3.2.1]octan-3-yl)-7-(5-chloroisoquinolin-4-yl)-8-fluoro-2-(((2S,7aR)-2-fluorotetrahydro-1H-pyrrolizin-7a(5H)-yl)methoxy)pyrido[4,3-d]pyrimidine] | 28.1 nM
C#Cc1cccc2cc(O)cc(-c3ncc4c(N5C[C@H]6CC[C@@H](C5)N6)nc(OC[C@@]56CCCN5C[C@H](F)C6)nc4c3F)c12 [Example 243] | 0.4 nM
O[C@@H]1C[C@@H]2CN(c3nc(OCCc4ccc(F)cn4)nc4c(F)c(-c5cccc6cccc(Cl)c56)ncc34)C[C@H]1N2 [Example 32, (1R,5R,6R)-3-(7-(8-chloronaphthalen-1-yl)-8-fluoro-2-(2-(5-fluoropyridin-2-yl)ethoxy)pyrido[4,3-d]pyrimidin-4-yl)-3,8-diazabicyclo[3.2.1]octan-6-ol] | 2140 nM
O[C@@H]1C[C@@H]2CN(c3nc(OCCn4ccnc4C(F)(F)F)nc4c(F)c(-c5cccc6cccc(Cl)c56)ncc34)C[C@H]1N2 [Example 169, (1R,5R,6R)-3-(7-(8-chloronaphthalen-1-yl)-8-fluoro-2-(2-(2-(trifluoromethyl)-1H-imidazol-1-yl)ethoxy)pyrido[4,3-d]pyrimidin-4-yl)-3,8-diazabicyclo[3.2.1]octan-6-ol] | 657 nM
CN1CCC[C@H]1COc1nc(N2CC3CCC(C2)N3)c2cnc(-c3cccc4cccc(C#N)c34)c(F)c2n1 [Example 192] | 225 nM
C#Cc1cccc2cccc(-c3ncc4c(N5C[C@H]6CC[C@@H](C5)N6)nc(OC[C@]56CCCN5C[C@@H](F)C6)nc4c3F)c12 [Example 205, 4-((1R,5S)-3,8-diazabicyclo[3.2.1]octan-3-yl)-7-(8-ethynylnaphthalen-1-yl)-8-fluoro-2-(((2S,7aR)-2-fluorotetrahydro-1H-pyrrolizin-7a(5H)-yl)methoxy)pyrido[4,3-d]pyrimidine] | 1.2 nM
COC1CN2CCCC2(COc2nc(N3CC4CCC(C3)N4)c3cnc(-c4cc(O)cc5cccc(F)c45)c(F)c3n2)C1 (mixture of isomers) [Example 388, 4-(4-((1R,5S)-3,8-diazabicyclo[3.2.1]octan-3-yl)-8-fluoro-2-((2-methoxytetrahydro-1H-pyrrolizin-7a(5H)-yl)methoxy)pyrido[4,3-d]pyrimidin-7-yl)-5-fluoronaphthalen-2-ol] | 0.6 nM
Fc1c(-c2cccc(Cl)c2C(F)(F)F)ncc2c(N3C[C@H]4CC[C@@H](C3)N4)nc(OCC34CCCN3CCC4)nc12 [Example 328, 4-((1R,5S)-3,8-diazabicyclo[3.2.1]octan-3-yl)-7-(3-chloro-2-(trifluoromethyl)phenyl)-8-fluoro-2-((tetrahydro-1H-pyrrolizin-7a(5H)-yl)methoxy)pyrido[4,3-d]pyrimidine] | 9.4 nM
Fc1c(-c2cccc3cccc(Cl)c23)ncc2c(N3C[C@H]4CC[C@@H](C3)N4)nc(OCc3cccn4ccnc34)nc12 [Example 150, 4-((1R,5S)-3,8-diazabicyclo[3.2.1]octan-3-yl)-7-(8-chloronaphthalen-1-yl)-8-fluoro-2-(imidazo[1,2-a]pyridin-8-ylmethoxy)pyrido[4,3-d]pyrimidine] | 1980 nM
CC(Oc1nc(N2C[C@H]3CC[C@@H](C2)N3)c2cnc(-c3cccc4cccc(F)c34)c(F)c2n1)C12CCCN1CCC2 (stereo partly drawn) [Example 450, 4-((1R,5S)-3,8-diazabicyclo[3.2.1]octan-3-yl)-8-fluoro-7-(8-fluoronaphthalen-1-yl)-2-(1-(hexahydro-1H-pyrrolizin-7a-yl)ethoxy)pyrido[4,3-d]pyrimidine] | 37 nM
Cn1nccc1CCOc1nc(N2C[C@H]3CC[C@@H](C2)N3)c2cnc(-c3cccc4cccc(Cl)c34)c(F)c2n1 [Example 144, 4-((1R,5S)-3,8-diazabicyclo[3.2.1]octan-3-yl)-7-(8-chloronaphthalen-1-yl)-8-fluoro-2-(2-(1-methyl-1H-pyrazol-5-yl)ethoxy)pyrido[4,3-d]pyrimidine] | 1700 nM
CC(C)Cc1ccccc1-c1ncc2c(N3CC4CCC(C3)N4)nc(OC[C@@]34CCCN3C[C@H](F)C4)nc2c1F (stereo in doubt) [Example 417, 4-((1R,5S)-3,8-diazabicyclo[3.2.1]octan-3-yl)-8-fluoro-2-((2-fluorotetrahydro-1H-pyrrolizin-7a(5H)-yl)methoxy)-7-(2-isobutylphenyl)pyrido[4,3-d]pyrimidine] | 595 nM

Source: patent US20230279025A1, “KRAS G12D INHIBITORS” (Mirati Therapeutics, Inc., priority 2020, published 2023)
